In general, pEC50 refers to the EC50 on a negative log10 scale, so that one unit is a factor of ten. Low values mean a high EC50, high ones a low EC50.

EC50 data for five compounds are collected here from BindingDB's records for doi:10.7270/Q2T43RJV (Nmmlsc, 2010).

Structures are written as SMILES. pEC50: −log10 of the molar value.

The target in the test is Guanine nucleotide-binding protein G(o) subunit alpha (Homo sapiens, UniProt P09471). Kind of test: modulators of RGS4 binding to Galphao – biochemical, multiplexed bead assay, additional SAR round, SAR follow-up (AID 2829).
Guanine nucleotide-binding protein G(o) subunit alpha, sequence (P09471 whole entry): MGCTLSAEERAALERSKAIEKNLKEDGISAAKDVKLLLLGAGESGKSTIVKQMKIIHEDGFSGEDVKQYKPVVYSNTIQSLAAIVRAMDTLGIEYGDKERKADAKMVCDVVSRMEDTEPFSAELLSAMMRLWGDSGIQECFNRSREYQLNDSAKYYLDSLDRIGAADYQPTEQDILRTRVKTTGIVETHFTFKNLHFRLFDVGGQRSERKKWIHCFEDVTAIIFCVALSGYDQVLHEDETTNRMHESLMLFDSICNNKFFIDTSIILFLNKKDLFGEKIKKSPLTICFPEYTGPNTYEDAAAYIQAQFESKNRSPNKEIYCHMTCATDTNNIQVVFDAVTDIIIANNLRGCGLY
For the compound `O=C(c1sc2cc([N+](=O)[O-])ccc2c1Cl)N1CCNCC1`, the pEC50 is under 4.52.
Next, `O=C(NCCCN1CCOCC1)c1sc2cc([N+](=O)[O-])ccc2c1Cl` [3-chloranyl-N-(3-morpholin-4-ylpropyl)-6-nitro-1-benzothiophene-2-carboxamide]: under 4.52.
For `O=C(NCCCn1ccnc1)c1sc2cc([N+](=O)[O-])ccc2c1Cl` [3-chloro-N-[3-(1-imidazolyl)propyl]-6-nitro-1-benzothiophene-2-carboxamide] the value was under 4.52.
Next, `NC(=O)c1sc2cc([N+](=O)[O-])ccc2c1Cl` [KSC-1-100]: under 4.52; `Cc1ccc2c(Cl)c(C(=O)NCCCN3CCOCC3)sc2c1` [KUC103874N]: under 4.52.
